Experiments:
[1] = xn = mol fraction of the nth substance listed; conditions: Liquid, x1 = 1; for mass density: Vibrating tube method; for viscosity: Concentric cylinders viscometry
[2] = 100 kPa, Liquid, Concentric cylinders viscometry

CCCCO [butan-1-ol] + Cc1ccc(C)c(C)c1
[1]
Conditions	mass density [kg/m3]	viscosity [mPa·s]
273.15 K, 100 kPa	824.6	–
273.15 K, 1000 kPa	825.2	–
273.15 K, 5000 kPa	827.7	–
273.15 K, 10000 kPa	830.8	–
273.15 K, 20000 kPa	836.7	–
273.15 K, 30000 kPa	842.3	–
273.15 K, 40000 kPa	847.6	–
273.15 K, 50000 kPa	852.5	–
273.15 K, 60000 kPa	857.2	–
273.15 K, 70000 kPa	861.7	–
273.15 K, 80000 kPa	866	–
273.15 K, 90000 kPa	870.1	–
273.15 K, 100000 kPa	874	–
273.15 K, 120000 kPa	881.5	–
273.15 K, 140000 kPa	888.5	–
293.15 K, 100 kPa	809.6	2.953
293.15 K, 1000 kPa	810.2	–
293.15 K, 5000 kPa	813.1	–
293.15 K, 10000 kPa	816.5	–
293.15 K, 20000 kPa	822.9	–
293.15 K, 30000 kPa	829	–
293.15 K, 40000 kPa	834.7	–
293.15 K, 50000 kPa	840	–
293.15 K, 60000 kPa	845	–
293.15 K, 70000 kPa	849.8	–
293.15 K, 80000 kPa	854.4	–
293.15 K, 90000 kPa	858.7	–
293.15 K, 100000 kPa	862.9	–
293.15 K, 120000 kPa	870.8	–
293.15 K, 140000 kPa	878.2	–
303.15 K, 100 kPa	–	2.263
313.15 K, 100 kPa	794.1	1.769
313.15 K, 1000 kPa	794.8	–
313.15 K, 5000 kPa	798	–
313.15 K, 10000 kPa	801.8	–
313.15 K, 20000 kPa	808.9	–
313.15 K, 30000 kPa	815.5	–
313.15 K, 40000 kPa	821.6	–
313.15 K, 50000 kPa	827.4	–
313.15 K, 60000 kPa	832.7	–
313.15 K, 70000 kPa	837.8	–
313.15 K, 80000 kPa	842.7	–
313.15 K, 90000 kPa	847.3	–
313.15 K, 100000 kPa	851.7	–
313.15 K, 120000 kPa	860	–
313.15 K, 140000 kPa	867.8	–
323.15 K, 100 kPa	–	1.406
333.15 K, 100 kPa	778	1.134
333.15 K, 1000 kPa	778.8	–
333.15 K, 5000 kPa	782.4	–
333.15 K, 10000 kPa	786.5	–
333.15 K, 20000 kPa	794.4	–
333.15 K, 30000 kPa	801.6	–
333.15 K, 40000 kPa	808.2	–
333.15 K, 50000 kPa	814.4	–
333.15 K, 60000 kPa	820.1	–
333.15 K, 70000 kPa	825.6	–
333.15 K, 80000 kPa	830.7	–
333.15 K, 90000 kPa	835.6	–
333.15 K, 100000 kPa	840.3	–
333.15 K, 120000 kPa	849	–
333.15 K, 140000 kPa	857.1	–

CCCCO [butan-1-ol]
[2]
Conditions	viscosity [mPa·s]
323.15 K	1.406
333.15 K	1.134
